# US20220142967A1, “Methods and Compositions for the Treatment of Multiple Sclerosis” (SYMBIONYX PHARMACEUTICALS INC, priority 2018, published 2022)
# Where a name gives a salt, the structure may show the parent alone.
# Assays:
# human fetal astrocytes = assay: A1 v A2 marker activation, RNA-seq of H2O2-stimulated astrocytes; type: cell-based; settings: 2.5 μM, 24 hrs, H2O2 (50 μM) stimulated
# Description: The treated cells were stimulated with H2O2 (50 μM) for 20 min and the RNA extracted 1 day later and sequenced using the Illumina HiSeq 2000 with an average of 39.3 million reads per sample. Reads were mapped to the GHch38/hg38 genome. 13,968 protein-coding genes had detectable expression on average among the 6 samples. Differentially expressed genes (DEGs) were identified using negative binomial models with FDR threshold of <0.10 and fold change (FC) criteria (FC>1.30 or FC<0.77). Gene set enrichment testing was performed using public database annotations. Motif enrichment with respect to DEG up-stream regions was characterized using semiparametric generalized additive logistics models. The overlap between the identified DEGs and MS-associated genes, i.e., genes from MS patients and genes linked to inflammatory (A1) and ischemic (A2) astrogliosis.
# [1] = tested on: patients with relapsing remitting MS (RRMS); settings: cited from earlier work
# [2] = target: T1, carboxylesterase 2 (CES2) (Homo sapiens, UniProt O00748); assay: Carboxylesterase hydrolysis IDMF v DMF; type: in vitro ADME; settings: for remaining parent compound: 1 mg/ml CES2, 37° C., pH 7.4
# T1 sequence (O00748 27-559): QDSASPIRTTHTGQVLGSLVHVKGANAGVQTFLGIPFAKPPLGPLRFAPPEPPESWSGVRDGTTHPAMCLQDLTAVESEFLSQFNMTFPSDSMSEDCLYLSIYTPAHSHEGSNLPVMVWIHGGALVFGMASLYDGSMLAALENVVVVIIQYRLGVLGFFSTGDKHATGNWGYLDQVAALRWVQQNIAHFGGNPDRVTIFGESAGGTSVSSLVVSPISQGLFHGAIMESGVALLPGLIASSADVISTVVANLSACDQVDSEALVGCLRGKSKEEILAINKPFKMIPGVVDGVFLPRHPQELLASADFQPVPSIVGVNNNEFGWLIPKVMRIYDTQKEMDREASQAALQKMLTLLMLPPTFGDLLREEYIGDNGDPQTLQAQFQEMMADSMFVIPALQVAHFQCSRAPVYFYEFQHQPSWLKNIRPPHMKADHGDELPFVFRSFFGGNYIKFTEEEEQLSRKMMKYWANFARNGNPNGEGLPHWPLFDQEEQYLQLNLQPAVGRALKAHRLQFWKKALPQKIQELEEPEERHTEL
# Description: IDMF and DMF were subjected to carboxylesterase hydrolysis. […] 1 mg/ml carboxylesterase 2 (CES2) was added to each solution and the solutions incubated at 37° C. for the time periods set forth in Table 5. […] Isosorbide was quantified using CAD. Mobile phase used for the study: 0.1% Formic acid in water; B: Methanol. Column: Luna C18 4.6 mm×100 mm, 5 u (Phenomenex). Flow rate: 1.0 ml/min.
# cultured astrocytes = assay: RNA-seq of cultured astrocytes compared with MS patient white matter astrocytes (GSE83670); type: cell-based, human; settings: cultured astrocytes vs. LCM-dissected MS patient astrocytes
# Description: Previously, Waller et al. 2016 (J Neuroimmunol 299:139-146) used laser capture microdissection (LCM) to isolate astrocytes from normal appearing white matter in MS patients and CTL subjects (GEO dataset GSE83670; PMID: 27125112).
# cDNA sequencing was performed by the University of Michigan sequencing core facility (50 cycle single end Illumina HiSeq 2000). The FASTX-Toolkit was used to filter reads by removing low quality sequences and initial quality assessments were performed using FastQC. Quality-filtered reads were mapped to the human genome (hg38/GRCh38, UCSC) using tophat2 with default settings, except multi-mapping of reads to multiple genome locations was disallowed (settings: -g 1 —no-coverage-search). The hg38/GRCh38 genome is the most recent release available from UCSC. HTSeq was used to tabulate the number of reads mapping to each genome feature and Cufflinks was used to calculate FPKM estimates and associated confidence intervals. RSeQC was used to assess quality of mapping and calculate the percentage of mapped reads. The negative binomial model (edgeR) was used to evaluate differential expression, with read counts normalized using the weighted trimmed mean of M-values method, and dispersions estimated using the Cox-Reid (CR)-adjusted likelihood approach. Differential expression analyses were performed using genes with detectable expression in at least 1 of 4 samples involved in a given comparison. A gene was considered to have detectable expression in a sample if the count per million mapped reads (cpm) estimate was greater than 0.20 and if the lower bound of the FPKM 95% confidence interval was greater than zero.
# FIG. 3 presents in scatterplot and histogram format the results of the study on the astrocytes. Scatterplots (A) and (D) compare fold change (FC) estimates in DMF-treated (A) and IDMF-treated (D) astrocytes to LCM-dissected astrocytes in MS patients and healthy controls (CTLs). Each point represents a protein-coding gene and the light colored ellipses outline the 90% of genes closest to the bivariate mean based upon the Mahalanobis distance. The Spearman rank correlation coefficient estimate is shown (upper-left). The proportion of genes within each quadrant is indicated in the upper margin (P<0.05, Fisher's exact test), wherein the quadrants are defined by a vertical and horizontal line through the “1” in each axis with the proportion corresponding, left to right to the upper left, the upper right, the lower right and lower left quadrants, respectively. Gene set overlap is presented in (B), (C), (E) and (F) wherein genes within each set were altered with a P<0.05 threshold. P-values from the test of overlap significance are shown (bottom margin, Fisher's exact test). […]
# MS = MS patients, oral therapy; cited from earlier work
# [3] = tested on: human fetal astrocytes derived from cerebral cortex; assay: Transcriptome analysis of astrocyte cultures treated with MMF, DRF, IDMF; type: cell-based; settings: 2.5 μM, 24 hours
# Description: (§1) Experiments were performed using human fetal astrocytes derived from cerebral cortex (cat. no. 882A-05f; Cell Applications, Sant Diego, Calif.). Cells were grown to subconfluence in human astrocyte growth medium (cat. no. 820-500, Cell Applications). […] Test materials were added to subconfluent cultures at a concentration of 2.5 μM and cells were incubated for 24 hours.
# (§2) RNA was extracted following the incubation period using the RNAeasy Mini Plus kit (Qiagen, Hilden, Germany) and robotic Qiacube Connect station (Qiagen). Samples were shipped on dry ice to the Thermo Fisher Microarray Research Services Laboratory (Santa Clara, Calif.) for transcriptome analysis. RNA quality analysis was performed upon sample receipt using the NanoDrop Lite (Thermo Fisher Scientific, Waltham, Mass.). All samples had 260/280 nm absorbance ratios higher than 1.90, consistent with high-purity RNA.
# In follow-up to the study of Example, 1 above, genes associated with multiple sclerosis were identified based upon seven established database sources: (1) the NHGRI-EBI genome-wide association (GWA) study catalogue, (2) the Disease Ontology (DO) database, (3) the DisGeNET (curated) database, (4) the DisGeNET (BeFree), (5) MalaCards, (6) the Medical Subject Heading (MESH) database and the KEGG Database. The impact on gene expression of IDMF, MMF and DRF on the key overlapping MS-associated genes was assessed.
# The specific data for four of the key NFR2 target genes associated with antioxidant and anti-inflammatory effects is presented in FIGS. 7(A) thru 7(D).
# Both TNFAIP3 and NFKBIA encode inhibitory proteins that suppress the NF-KB pathway. Specifically, TNFAIP3 encodes a deubiquitinating enzyme previously linked to MS by genetic association studies: a TNFAIP3 protein abundance is increased in white matter and cortical lesion astrocytes from MS patient brains. Similarly, NFKBIA (IκBα) encodes an NF-KB inhibitor for which promoter polymorphisms have been associated with MS and abundance of this protein is prominent in macrophage nuclei of MS plaques undergoing active demyelination. ICAM1 encodes an endothelial adhesion molecule that promotes leucocyte extravasation and is associated with the initiation and progression of inflammation as well as the targeting of inflammation in the central nervous system (CNS). FIGS. 9(A), 9(B) and 9(C) show the specific data for these three genes.
# Genetic variants of IFR has been associated with MS and some MS treatments such as glatiramer acetate block cytokine-stimulated IRF1 up-regulation. An assessment was undertaken to assess the relative impact of fumarate esters, namely MMF, DRF and IDMF on IFR motif enrichment.
# [4] = target: T1, carboxylesterase 2 (CES2); assay: Carboxylesterase hydrolysis IDMF v DRF; type: in vitro ADME; settings: 20 μl of 1 mg/ml CES2, 37° C., pH 7.4
# Description: 20 μl of 1 mg/ml carboxylesterase 2 (CES2) was added to each solution and the solutions incubated at 37° C. for the time periods set forth in Table 5. […] Although tolerable for normal patients, HES is undesirable and detrimental for those individuals have kidney and/or liver issues
# [5] = tested on: human fetal astrocytes derived from cerebral cortex; assay: Comparative RT-PCR evaluation of selected genes in astrocytes; type: cell-based
# Description: as §1, §2
# The expression of selected genes was further evaluated using RT-PCR. cDNA was prepared using the AzuraQuant cDNA kit (Azura Genomics, Raynham, Mass.) and PCR reactions were performed using the BioRad iCycler iQ Detection System with Fast Green qPCR Master Mix—Fluor (Azura Genomics). PCR primers were purchased from Realtimeprimers (Elkins Park, Pa.). The ΔΔCt method [Livak K. J. and Schmittgen T. D. Analysis of relative gene expression data using real-time quantitative PCR and the 2(−Delta Delta C(T)) Method. Methods (San Diego, Calif.) 25(4):402-408, 2001]. was used to estimate fold changes with cycle threshold values normalized based upon the expression of glyceraldehyde-3-phosphate dehydrogenase (GAPDH).
# [6] = tested on: patients with Relapsing-Remitting Multiple Sclerosis; settings: cited from earlier work
# [7] = in vivo; cited from earlier work
# [8] = DEFINE and CONFIRM phase III trials
# [9] = DRF 462 mg BID, 96-week study (EVOLVE-MS-1)
smiles,measurement,setting,value
"COC(=O)/C=C/C(=O)OC [DMF, Dimethyl fumarate]",ICAM1 expression,human fetal astrocytes,no similar activity
same,expression of genes linked to A1-polarization,human fetal astrocytes,tended to increase expression
same,expression of genes linked to A2-polarization,human fetal astrocytes,decreased expression
same,"flushing, most reported adverse effect",[1]; [8],24-38%
same,"specific gastrointestinal (GI) adverse effects (nausea, vomiting, diarrhea, upper abdominal pain), patients",[1]; [8],7 to 19%
same,patients who experienced adverse GI effects,"[1]; after 1 year, in these trials",36%
same,"discontinuation of DMF due to GI side effects, patients",[1]; real-world settings,5-19%
same,remaining parent compound,[2]; 0 minutes,1 mM
same,remaining parent compound,[2]; 30 minutes,0.166 mM
same,remaining parent compound,[2]; 60 minutes,0.08 mM
same,remaining parent compound,[2]; 120 minutes,0.014 mM
same,time by which essentially all is hydrolyzed,"[2]; CES2, 37° C.",≤ 60 min
same,fraction not hydrolyzed to MMF,[2]; within thirty minutes,about 17%
same,correlation of genome-wide expression responses with those observed in MS patients (Spearman r),cultured astrocytes,0.23
same,"Disability reduction, %",MS,38%
same,"Gadolinium enhancement reduction, %",MS,74-90%
same,"Relapse rate reduction vs. placebo, %",MS,44-53%
same,Side effects,MS,"Flushing,"
same,"T2w lesion reduction, %",MS,71-85%
C/C(O)=C(\C#N)C(=O)Nc1ccc(C(F)(F)F)cc1 [Teriflunomide],Side effects,MS,"Gl, hair thinning,"
"COC(=O)/C=C/C(=O)OCCN1C(=O)CCC1=O [DRF, diroximel fumarate]","effect on TNFAIP3, NFKBIA and ICAM1 expression",[3],effectively no effect
same,remaining parent compound,[4]; 0 minutes,1 mM
same,remaining parent compound,[4]; 15 minutes,.652 mM
same,remaining parent compound,[4]; 30 minutes,0.482 mM
same,remaining parent compound,[4]; 60 minutes,0.273 mM
same,remaining parent compound,[4]; 120 minutes,0.08 mM
same,OSGIN1 expression,[5]; FIG. 11(B),suppression
same,"expression of key MS-associated genes (IL-6, ICAM1, MALT1, TNFAIP3, IRF1, CXCL8)",[5]; FIGS. 11(C) through 11(H),negligible effect
same,reduction of number of days with at least moderate GI symptoms,"[6]; 5-week study, DRF 462 mg BID as compared to DMF 240 mg BID",46%
same,"discontinuation due to adverse GI effects, patients",[6]; [9],6.3%
same,patients who developed adverse GI effects,[6]; [9],30.9%
same,RDC-8439 and methanol generated as minor products,[7],< 10%
same,fraction metabolized to HES and MMF,[7],> 90%
CCCCCCCCc1ccc(CCC(N)(CO)CO)cc1 [Fingolimod],Side effects,MS,First dose
